# Experimental data taken from patent publication US8802711B2, “TRPV1 antagonists” (AbbVie Inc., priority 2011, dated 2014).
# System: Sprague-Dawley rats
# Assay: Chronic constriction injury model of neuropathic pain
# Assay type: in vivo, rat
# Conditions: 100 μmol/kg p.o., 1 hour after dosing
# Text: Adult male Sprague-Dawley rats (250-300 g body weight, Charles River Laboratories, Portage, Mich.) were used. Animal handling and experimental protocols were approved by the Institutional Animal Care and Use Committee (IACUC) at Abbott Laboratories. For all surgical procedures, animals were maintained under isoflurane anesthesia (4-5% to induce, 1-3% to maintain), and the incision sites were sterilized using a 10% povidone-iodine solution prior to and after surgeries.
# A model of chronic constriction injury-induced (CCI) neuropathic pain was produced in rats by following the method of Bennett and Xie (Pain, 1988, 33:87). Following sterilization and anesthetic procedures, a 1.5 cm incision was made dorsal to the pelvis, and the biceps femoris and gluteous superficialis (right side) were separated. The right common sciatic nerve was exposed/isolated, and loosely ligated by 4 ligatures of chromic gut (5-0) with <1 mm spacing using hemostats and forceps. […]
# Tactile allodynia was measured using calibrated von Frey filaments (Stoelting, Wood Dale, Ill.) as described in Chaplan, S. R., F. W. Bach, J. M. Pogrel, J. M. Chung and T. L. Yaksh, Quantitative assessment of tactile allodynia in the rat paw, J. Neurosci. […]
row,SMILES,% effect
1,"O=C(Nc1cccc2[nH]ncc12)N[C@H]1CC[C@H](c2ccccc2)C1 [Example 14, 1-(1H-indazol-4-yl)-3-[(1S,3S)-3-phenylcyclopentyl]urea]",53%
2,"O=C(Nc1cccc2[nH]ncc12)N[C@H]1CC[C@@H](c2ccccc2)C1 [Example 28, 1-(1H-indazol-4-yl)-3-[(1S,3R)-3-phenylcyclopentyl]urea]",54%
